Measurements published in publication PMC9967152 (International Journal of Molecular Sciences, 2023).
Where a SMILES comes first, the peptide text is derived from it. [ ]: non-standard residue; d: D form. The star is where a group is joined. Daunorubicin(13-NOCH2CO) = COc1cccc2c1C(=O)c1c(O)c3c(c(O)c1C2=O)C[C@@](O)(C(C)=NOCC(=O)*)C[C@@H]3O[C@H]1C[C@H](N)[C@H](O)[C@H](C)O1; Nle = CCCC[C@H](N)C(=O)O

Columns and labels:
MRC-5 human fibroblasts = assay: Toxicity on non-cancerous cells (dose-response curves); assay type: cell-based; conditions: Figure S15
Excerpt: The lack of toxicity of the conjugates on healthy cells was checked on MRC-5 human fibroblasts, proving that they are non-toxic on non-cancerous cells (see Supplementary Materials, Figure S15).
Figure S15. Dose-response curves of the PDCs and Dau on MRC-5 human fibroblast cell line. Only […]
Figure S16. Flow cytometry measurements for the uptake of all the PDCs on MDA-MB-231 (A), MDA-MB-453 (B) and PC-3 (C) human cancer cell lines. The percentage of cells containing the Dau-conjugates was evaluated on four concentrations (%, mean ± SD, n= 2). Given that above 12.5 µM the internalisation may not only be receptor-mediated, this concentration was considered to com-pare the uptake of the bioconjugates. […]

[1] = test system: PC-3 human prostatic adenocarcinoma xenograft in NOD-SCID mice; assay: In vivo tumour growth inhibition, subcutaneous PC-3 xenograft; set-up: species or system mouse; conditions: free drug 1 mg/kg, two treatments, n = 8
Description: The testing of the antitumour conjugates was carried out in a murine xenograft model. It was established by inoculating subcutaneously 100 µL of cell suspension of PC-3 prostate cancer cells with a concentration of 2 × 10^7 cells/mL.
Once the tumour volume reached 60 mm^3, mice were randomised and assigned to different groups for each treatment, respectively 0.9% saline as control, free daunorubicin, L5, and L6. Each group consisted of eight mice. Peptide–drug conjugates were injected intraperitoneally every 5th day, five times in total (daunorubicin dosage of 10 mg/kg for each treatment). In the case of free daunorubicin, two treatments were administered at the same time points as the first two treatments with conjugates, with a dosage of 1 mg/kg, the maximum tolerated dose (MTD). Weight and tumour size of mice were monitored throughout the whole experiment, two times per week. On day 33, mice were euthanized, and primary tumour, heart, lung, liver and spleen were harvested and stored in 4% formalin (Molar Chemicals, Halásztelek, Hungary). After 2–3 days of incubation in formalin, tissue samples were examined macroscopically. Organs and primary tumours from the different treatment groups were weighed and inspected under a stereomicroscope to see any occurrent changes in morphology compared to the controls.

mice = conditions: mouse experimental model; cited from earlier work
Description: Before testing the effect of our newly developed PDCs on tumour growth in vivo, we performed a chronic toxicity study to determine the ideal dosage of the compounds. Administration of daunorubicin is shown to cause severe cardiotoxic side effects, therefore, its maximum tolerated dose is 1 mg/kg in the case of our experimental model. However, when conjugated to targeting moieties, its side effects can be reduced; moreover, its tumour inhibition capabilities can be increased.

[2] = test system: PC-3 human prostate adenocarcinoma cells; assay: MTT assay, in vitro cytostatic effect; assay type: cell-based; conditions: Homo sapiens, 24 h treatment at 3.125–25 µM, then cultured up to 72 h, mean ± SD, n = 2 independent experiments with four parallels
Description: (§1) Cells were distributed into 96-well tissue culture plates with an initial cell number of 5.0 × 10^3 per well. After 24 h incubation at 37 °C, the cells were treated with the compounds in 200 µL final volume containing 1.0 v/v% DMSO and 10% H2O. […] After incubation, the cells were washed twice with a serum-free medium. To determine the in vitro cytostatic effect, the cells were further cultured up to 72 h in a 10% serum-containing medium. A solution of 3-(4,5-dimethylthiazol-2-yl)-2,5-diphenyltetrazolium bromide and MTT-solution, (45 µL, 2 mg/mL, final concentration: […]) were added to each well. The respiratory chain [67] and other electron transport systems reduce MTT, and thereby form non-water-soluble violet formazan crystals within the cell. […] After 3 h of incubation, the cells were centrifuged for 5 min at 1000 g and the supernatant was removed. The obtained formazan crystals were dissolved in DMSO (100 μL) and the optical density (OD) of the samples was measured at λ = 540 and 620 nm, respectively, using ELISA Reader (iEMS Reader, Labsystems, Finland). OD620 values were subtracted from OD540 values. The percentage of cytostasis was calculated by using the following equation:Cytostatic effect (%) = [1 − (ODtreated/ODcontrol)] × 100(1)
(§2) Values of ODtreated and ODcontrol correspond to the optical densities of the treated and the control cells, respectively. In each case, two independent experiments were carried out with four parallel measurements. The 50% inhibitory concentration (IC50) values were determined from the dose–response curves. The curves were defined using Microcal™ Origin 2018 software: cytostasis was plotted as a function of concentration, fitted to a sigmoidal curve, and based on this curve, the half-maximal inhibitory concentration (IC50) value was determined. IC50 represents the concentration of a compound that is required for 50% inhibition in vitro and is expressed in micromolar units.

[3] = test system: MDA-MB-453 human metastatic epithelial breast carcinoma cells; assay: MTT assay, in vitro cytostatic effect; assay type: cell-based; conditions: Homo sapiens, MDA-MB-453, 24 h treatment at 3.125–25 µM, then cultured up to 72 h, mean ± SD, n = 2 independent experiments with four parallels
Description: as §1, §2

[4] = test system: MDA-MB-231 human breast adenocarcinoma cells; assay: MTT assay, in vitro cytostatic effect; assay type: cell-based; conditions: Homo sapiens, MDA-MB-231, 24 h treatment at 3.125–25 µM, then cultured up to 72 h, mean ± SD, n = 2 independent experiments with four parallels
Description: as §1, §2

[5] = Stability in incomplete (serum-free) DMEM; assay type: in vitro ADME; conditions: 25 µM, 37 °C, 600 rpm, LC–MS, n = 2
Description: The conjugates were incubated in incomplete DMEM for 3 h (similarly to the internalisation studies) or in 2.5% FBS containing DMEM for 24 h (conditions for the MTT assay). […] No significant loss of L1 and L5 (<20%) or L6 (<30%) was observed after 3 h (see Supplementary Materials, Figure S17).
DMSO stock solutions of the conjugates (2.5 mM) were diluted in DMEM free from or containing 2.5% FBS, to a final concentration of 25 μM. The mixture was incubated and stirred at 37 °C, 600 rpm, and 30 µL aliquots were collected after 0 min, 0.5, 1, 2, 4, 8 and 24 h, in duplicates. Then, to each sample, 90 µL of 0.1% formic acid containing MeCN was added and the samples were frozen at −25 °C for ≥30 min to aid protein precipitation. Large FBS components were removed by centrifugation (15 min, 5000 g, 4 °C). Aliquots of 50 µL supernatant were diluted with an equal volume of ddH2O + 0.1% formic acid and analysed by LC–MS. Control measurements were performed in the same manner (25 μM bioconjugate in 100% ddH2O).

[6] = Metabolism in rat liver lysosomal homogenate; assay type: in vitro ADME; conditions: 0.2 M NaOAc pH 5.05, 37 °C, conjugate–lysosomal protein 1:10 (w/w), HPLC-MS, triplicates
Description: All the conjugates contain a cathepsin B cleavable spacer, either GFLG or LRRY, to allow the release of the toxic payload in lysosomes after receptor-mediated internalisation. We explored the metabolism of L1, L3, L5 and L6 in rat liver lysosomal homogenate to mimic this situation. The experiment was performed over 72 h, sampling at 0 min, 15 min, 30 min, 1 h, 2 h, 6 h, 24 h and 72 h in triplicates. All the (Dau=Aoa-LRRY)–BBN (7-14) conjugates have a similar degradation profile and they quickly release the active metabolite Dau=Aoa-Leu-OH, which can be detected after 15 min (Figure 3). […] Its signal cannot be detected anymore already after 1 h.
The rat liver lysosomal homogenate was prepared based on our previously published procedure, with small modifications: livers from two male Wistar rats (32.6 g and 41.2 g, respectively) were collected, minced with a knife and homogenised in two volumes of ice-cold 0.3 M sucrose, using a T25 Ultra Turrax homogenizer (∼100 mL). […] The protein concentration was determined by measuring the absorbance at 260 nm and 280 nm, and was calculated using the formula: Concentration (μg/μL) = 1.55 ∗ A280 − 0.76 ∗ A260; it was determined as 71.76 μg/μL. […]
The conjugates (2.5 μg/μL in DMSO, 5 μL) were diluted with 0.2 M NaOAc solution (pH 5.05, 495 μL) to 0.025 μg/μL. […] The composition of the samples was determined by HPLC-MS.

[7] = Stability in mouse plasma; assay type: in vitro ADME; conditions: 37 °C, HPLC-MS
Description: Due to their low IC50 values and internalisation on the tested cell lines, conjugates L1, L5 and L6 were chosen for investigation of their stability in mouse plasma, as potential candidates for in vivo studies. They were incubated at a concentration of 10 µM, with mouse plasma for 24 h at 37 °C. Samples were collected at 0 h, 30 min, 1 h, 2 h, 4 h, 8 h and 24 h and analysed by HPLC-MS. […] Furthermore, after 2 h, L1 starts to release the toxic metabolite Dau=Aoa-Leu-OH, whereas this happens only after 24 h for L5 and L6, in a considerably low amount (see Supplementary Materials, Figures S18–S20).
The conjugates were dissolved in ddH2O containing 10% DMSO (stock solution: 100 μM) and diluted with mouse plasma to a final concentration of 10 μM. The mixture was incubated and stirred at 37 °C, 600 rpm, and 30 µL aliquots were collected after 0 min, 0.5, 1, 2, 4, 8 and 24 h, in triplicates. Then, to each plasma sample, 90 µL of 0.1% formic acid containing MeCN was added, and the samples were frozen at −25 °C for ≥30 min to aid protein precipitation. Large plasma proteins were removed by centrifugation (15 min, 5000× g, 4 °C). Aliquots of 50 µL supernatant were diluted with an equal volume of ddH2O + 0.1% formic acid and analysed by LC–MS. Control measurements were performed in the same manner (10 μM bioconjugate in 100% ddH2O).

## COc1cccc2c1C(=O)c1c(O)c3c(c(O)c1C2=O)C[C@@](O)(C(C)=O)C[C@@H]3O[C@H]1C[C@H](N)[C@H](O)[C@H](C)O1 [Dau, daunorubicin, reference compound]
MRC-5 human fibroblasts
  Toxicity on MRC-5 human fibroblasts: reveals toxicity
[1]
  Day at which fitness of mice decreased to a critical state: 26 days
  Effect on tumour growth: did not significantly reduce tumour growth
mice
  Maximum tolerated dose: 1 mg/kg
[2]
  IC50: 750 ± 10 nM
[3]
  IC50: 810 ± 70 nM
[4]
  IC50: 900 ± 60 nM

## CCCC[C@H](NC(=O)[C@H](CC(C)C)NC(=O)[C@H](Cc1c[nH]cn1)NC(=O)CNC(=O)[C@@H](NC(=O)[C@H](C)NC(=O)[C@H](Cc1c[nH]c2ccccc12)NC(=O)[C@H](CCC(N)=O)NC(=O)[C@H](Cc1ccc(O)cc1)NC(=O)[C@H](CCCNC(=N)N)NC(=O)[C@H](CCCNC(=N)N)NC(=O)[C@H](CC(C)C)NC(=O)CON=C(C)[C@]1(O)Cc2c(O)c3c(c(O)c2[C@@H](O[C@H]2C[C@H](N)[C@H](O)[C@H](C)O2)C1)C(=O)c1c(OC)cccc1C3=O)C(C)C)C(N)=O [L1, (Dau=Aoa)-LRRY-BBN(7-14)[Nle14]] ({Daunorubicin(13-NOCH2CO)}-LRRYQWAVGHL[Nle]-NH2)
other
  time to release of active metabolite Dau=Aoa-Leu-OH: < 30 min
[5]
  Loss of conjugate after 3 h: < 20%
[6]
  Time after which the signal of the intact conjugate cannot be detected anymore: ≤ 1 h
[7]; 10 µM, for L5 and L6 in a considerably low amount
  Time after which release of the toxic metabolite Dau=Aoa-Leu-OH starts: 2 h
[7]; 600 rpm, n = 3, read-out: Detected fraction after 8 h
  remaining at 8 h, 10 μM: 20%
[7]; 600 rpm, n = 3, read-out: t1/2 in mouse plasma (converted)
  half-life at 10 μM: 3.8 h
